# From PMC6151550, “Inhibitory Effect of Selaginellins from Selaginella tamariscina (Beauv.) Spring against Cytochrome P450 and Uridine 5′-Diphosphoglucuronosyltransferase Isoforms on Human Liver Microsomes” (Molecules : A Journal of Synthetic Chemistry and Natural …, 2017)
# Tests used:
# Format in all cases: in vitro ADME
# UGT1A6 = molecular target: T1, UGT1A6 (Homo sapiens, UniProt P19224); test: UGT1A6 inhibition (N-acetylserotonin glucuronidation) in human liver microsomes, cocktail LC-MS/MS
# T1 construct: from tissue; host or cells: human liver microsomes
# T1 sequence (P19224 27-532): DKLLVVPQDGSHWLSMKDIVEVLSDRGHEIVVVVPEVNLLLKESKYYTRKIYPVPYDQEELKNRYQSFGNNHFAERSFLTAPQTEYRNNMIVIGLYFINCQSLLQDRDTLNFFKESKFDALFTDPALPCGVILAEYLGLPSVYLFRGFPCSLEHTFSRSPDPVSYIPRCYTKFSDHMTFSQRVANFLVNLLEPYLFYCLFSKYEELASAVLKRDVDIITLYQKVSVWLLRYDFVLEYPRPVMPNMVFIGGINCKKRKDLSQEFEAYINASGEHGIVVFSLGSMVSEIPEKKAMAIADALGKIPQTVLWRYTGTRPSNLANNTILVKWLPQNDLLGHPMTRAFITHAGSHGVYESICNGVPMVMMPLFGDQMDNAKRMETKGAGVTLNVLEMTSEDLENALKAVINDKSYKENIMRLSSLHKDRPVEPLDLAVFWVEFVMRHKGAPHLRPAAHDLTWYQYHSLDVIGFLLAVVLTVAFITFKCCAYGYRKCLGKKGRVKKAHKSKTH
# Method: (§1) The inhibitory effects of two selaginellins on the metabolism of six UGT probe substrates were evaluated using previously reported method with minor modification. In brief, HLMs (0.25 mg/mL) were activated by incubation in the presence of alamethicin (25 μg/mL) for 15 min on ice. After the addition of UGT isoform-selective substrates and selaginellins (0, 0.5, 2, 5, 20 and 50 μM) the final concentrations of organic solvent (methanol) for the cocktail incubation conditions were 1.0% (v/v). The incubation reaction mixtures were pre-incubated for 5 min. The reaction was initiated by the addition of 5 mM UDPGA and further incubated for 60 min. All reactions were terminated by adding ice-cold acetonitrile containing estrone glucuronide (IS). After mixing and centrifugation, aliquots were injected into a LC-MS/MS as described previously (Table 2). All microsomal incubations were performed in triplicate.
# (§2) The IC50 values (concentration of the inhibitor causing 50% inhibition of the original enzyme activity) were calculated using WinNonlin software (Pharsight, Mountain View, CA, USA): percentage of control activity = 100 × [1 − (I/(I + IC50))], where I is the inhibitor concentration, and IC50 is the inflection point on the curve.
# UGT1A4 = molecular target: T2, UGT1A4 (Homo sapiens, UniProt P22310); test: UGT1A4 inhibition (trifluoperazine glucuronidation) in human liver microsomes, cocktail LC-MS/MS
# T2 construct: from tissue; host or cells: human liver microsomes
# T2 sequence (P22310 29-534): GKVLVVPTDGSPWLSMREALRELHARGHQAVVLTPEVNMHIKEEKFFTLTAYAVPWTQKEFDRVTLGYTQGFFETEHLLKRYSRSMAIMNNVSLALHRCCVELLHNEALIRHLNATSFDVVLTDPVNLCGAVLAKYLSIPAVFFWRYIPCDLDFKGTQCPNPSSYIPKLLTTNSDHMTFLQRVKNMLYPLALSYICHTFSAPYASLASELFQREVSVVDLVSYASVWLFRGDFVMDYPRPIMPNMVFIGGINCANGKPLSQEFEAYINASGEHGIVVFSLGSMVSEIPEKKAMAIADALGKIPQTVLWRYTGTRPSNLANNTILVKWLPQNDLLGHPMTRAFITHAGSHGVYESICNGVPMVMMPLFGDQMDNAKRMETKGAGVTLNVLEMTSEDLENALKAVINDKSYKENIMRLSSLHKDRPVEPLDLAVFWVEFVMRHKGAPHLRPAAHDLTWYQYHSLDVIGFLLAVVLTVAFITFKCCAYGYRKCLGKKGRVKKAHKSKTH
# Method: as §1, §2
# UGT1A3 = molecular target: T3, UGT1A3 (Homo sapiens, UniProt P35503); test: UGT1A3 inhibition (chenodeoxycholic acid glucuronidation) in human liver microsomes, cocktail LC-MS/MS; conditions: IC50 UGT isoform 1A3, HLMs 0.25 mg/mL with alamethicin, chenodeoxycholic acid 2.0 μM
# T3 construct: from tissue; host or cells: human liver microsomes
# T3 sequence (P35503 29-534): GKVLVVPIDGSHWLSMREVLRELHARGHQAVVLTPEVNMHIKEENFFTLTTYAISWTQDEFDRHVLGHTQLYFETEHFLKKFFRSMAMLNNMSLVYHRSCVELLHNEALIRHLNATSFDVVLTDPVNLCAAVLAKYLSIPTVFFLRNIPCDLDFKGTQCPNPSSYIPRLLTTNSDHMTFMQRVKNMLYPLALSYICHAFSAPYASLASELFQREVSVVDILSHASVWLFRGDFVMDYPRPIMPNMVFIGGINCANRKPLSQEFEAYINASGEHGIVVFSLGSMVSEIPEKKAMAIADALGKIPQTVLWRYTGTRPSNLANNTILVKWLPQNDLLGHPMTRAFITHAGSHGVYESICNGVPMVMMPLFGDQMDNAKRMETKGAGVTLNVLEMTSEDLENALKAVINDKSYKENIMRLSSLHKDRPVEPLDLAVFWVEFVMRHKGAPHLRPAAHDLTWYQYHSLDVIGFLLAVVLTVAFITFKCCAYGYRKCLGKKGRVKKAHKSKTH
# Method: as §1, §2
# UGT1A1 = molecular target: T4, UGT1A1 (Homo sapiens, UniProt P22309); test: UGT1A1 inhibition (SN-38 glucuronidation) in human liver microsomes, cocktail LC-MS/MS; conditions: IC50 UGT isoform 1A1, HLMs 0.25 mg/mL with alamethicin, SN-38 0.5 μM
# T4 construct: from tissue; host or cells: human liver microsomes
# T4 sequence (P22309 26-533): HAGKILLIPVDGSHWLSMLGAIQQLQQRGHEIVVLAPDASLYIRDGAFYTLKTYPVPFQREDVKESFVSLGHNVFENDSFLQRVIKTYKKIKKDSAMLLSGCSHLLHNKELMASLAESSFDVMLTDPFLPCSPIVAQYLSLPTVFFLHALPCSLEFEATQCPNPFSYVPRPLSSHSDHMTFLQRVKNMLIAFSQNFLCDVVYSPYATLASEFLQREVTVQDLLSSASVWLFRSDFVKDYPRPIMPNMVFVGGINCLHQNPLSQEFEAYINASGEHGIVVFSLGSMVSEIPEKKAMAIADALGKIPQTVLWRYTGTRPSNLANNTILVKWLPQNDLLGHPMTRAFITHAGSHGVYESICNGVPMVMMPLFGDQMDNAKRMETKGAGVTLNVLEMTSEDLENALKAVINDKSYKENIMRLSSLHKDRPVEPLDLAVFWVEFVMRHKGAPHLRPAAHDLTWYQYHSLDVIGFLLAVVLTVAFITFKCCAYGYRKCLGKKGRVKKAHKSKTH
# Method: as §1, §2
Compound,IC50 (UGT1A6),IC50 (UGT1A4),IC50 (UGT1A3),IC50 (UGT1A1)
COc1ccc(C(=C2C=CC(=O)C=C2)c2c(-c3ccc(O)cc3)ccc(CO)c2C#Cc2ccc(O)cc2)cc1 [Selaginellin M],36.5 µM,3.9 µM,3.5 µM,1.3 µM
O=C1C=CC(=C(c2ccc(O)cc2)c2c(-c3ccc(O)cc3)ccc(CO)c2C#Cc2ccc(O)cc2)C=C1 [Selaginellin],25.3 µM,6.6 µM,4.7 µM,1 µM
